Reference: patent publication US9023789B2, “Amylin analogs and pharmaceutical compositions thereof” (Novo Nordisk A/S, priority 2012, dated 2015)
Like-named read-outs stand apart in the source and are kept apart here. Numbered stars: 1 amine (or outer) side, 2 acyl side, 3 side chain; on linkers, the order of the positions; unused ones are H or OH. Bridge positions count the residues as written; N and C are the ends. Side chains are listed from the residue outwards. Peptide text beside a SMILES is read from it. * marks the point of attachment. C20 diacid = O=C(O)CCCCCCCCCCCCCCCCCCC(=O)*; γGlu = O=C(O)[C@H](CCC(=O)[*:2])N[*:1]; AEEA = NCCOCCOCC(=O)O

Assays:
[1] = molecular target: T1, human amylin 3(a) receptor (human calcitonin receptor + RAMP-3) in BHK570 cells (Homo sapiens, UniProt O60896+P30988); assay: ASSAY (II)a functional assay, human amylin receptor (CRE luciferase); type: cell-based
T1 construct: expressed in transfected cells
T1 sequence (O60896 24-148): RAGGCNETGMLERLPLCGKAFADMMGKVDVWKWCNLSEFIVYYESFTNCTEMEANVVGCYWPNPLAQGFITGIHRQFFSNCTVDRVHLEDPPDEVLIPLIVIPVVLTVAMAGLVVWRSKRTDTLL
T1 sequence (P30988 25-474): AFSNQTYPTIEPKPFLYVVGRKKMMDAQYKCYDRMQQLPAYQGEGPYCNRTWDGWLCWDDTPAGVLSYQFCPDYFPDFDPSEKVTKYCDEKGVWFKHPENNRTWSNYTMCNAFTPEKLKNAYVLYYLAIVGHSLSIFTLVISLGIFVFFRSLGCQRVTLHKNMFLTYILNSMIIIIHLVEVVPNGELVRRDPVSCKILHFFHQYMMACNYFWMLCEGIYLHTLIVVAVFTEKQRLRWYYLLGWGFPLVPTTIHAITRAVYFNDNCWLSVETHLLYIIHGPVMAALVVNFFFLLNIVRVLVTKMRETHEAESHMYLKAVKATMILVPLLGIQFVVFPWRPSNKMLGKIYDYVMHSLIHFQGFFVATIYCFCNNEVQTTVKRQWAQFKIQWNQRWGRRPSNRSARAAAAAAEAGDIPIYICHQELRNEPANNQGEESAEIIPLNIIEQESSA
Outline: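 Read-out: CRE-driven luciferase luminescence, single photon counting, after 30 min at room temperature with LucLite. BHK cells expressed calcitonin receptor alone or with RAMP-3 (amylin 3(a)). Cells were stimulated 3 h at 37° C in DMEM, 10% FBS, 10 mM Hepes, pH 7.4.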

[2] = ASSAY (III) ThT fibrillation assay for physical stability; type: physicochemical
Outline: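 Physical stability scored by ThT fluorescence (444 nm excitation, 485 nm emission) tracked every 20 min during 37 °C incubation with 960 rpm shaking, ThT at 1 μM final. Values are replicate means with SD at chosen times; HPLC against pramlintide standard gives initial and post-assay soluble concentrations.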

[3] = hCTR funct. EC50 / hAmylin-R funct. EC50
[4] = hCTR funct. EC50 divided by hAmylin-R funct. EC50
[5] = hCTR funct. EC50 over hAmylin-R funct. EC50
[6] = human amylin receptor functional potency, assay (II), read-out: hAmylin-R funct. EC50
[7] = human functional selectivity: hCTR funct. EC50 / hAmylin-R funct. EC50

Row | Ratio hCT/hAmylin funct. [1, 3] | Ratio hCT/hAmylin funct. [1, 4] | Ratio hCT/hAmylin funct. [1, 5] | EC50 [1, 6] | Ratio hCT/hAmylin funct. [1, 7] | ThT pH 4.0 lag time (h) [2] | SMILES | EC50 [1]
1 | 4.8 | 4.8 | 4.8 | 154 pM | 4.8 | 45 h | CC[C@H](C)[C@H](NC(=O)[C@H](C)NC(=O)CNC(=O)[C@H](Cc1ccccc1)NC(=O)[C@H](CC(N)=O)NC(=O)[C@@H]1CCCN1C(=O)[C@H](CO)NC(=O)[C@H](CO)NC(=O)[C@H](Cc1c[nH]cn1)NC(=O)[C@H](CCCNC(=N)N)NC(=O)[C@H](CC(C)C)NC(=O)[C@H](Cc1ccccc1)NC(=O)[C@H](CCC(=O)O)NC(=O)[C@H](C)NC(=O)[C@H](CC(C)C)NC(=O)[C@H](CCCNC(=N)N)NC(=O)[C@H](CCC(N)=O)NC(=O)[C@@H](NC(=O)[C@H](C)NC(=O)[C@@H]1CSSC[C@H](NC(=O)[C@H](CCCCN)NC(=O)CC[C@H](NC(=O)CCCCCCCCCCCCCCCCCCC(=O)O)C(=O)O)C(=O)N[C@@H](CC(N)=O)C(=O)N[C@@H]([C@@H](C)O)C(=O)N[C@@H](C)C(=O)N[C@@H]([C@@H](C)O)C(=O)N1)[C@@H](C)O)C(=O)N1CCC[C@H]1C(=O)N[C@@H](CO)C(=O)N[C@@H](CO)C(=O)N[C@H](C(=O)N[C@@H](CC(N)=O)C(=O)N[C@H](C(=O)NCC(=O)N[C@@H](CO)C(=O)N[C@@H](Cc1c[nH]cn1)C(=O)N[C@H](C(=O)N[C@@H](Cc1ccc(O)cc1)C(N)=O)[C@@H](C)O)C(C)C)[C@@H](C)O [Example 18] ({C20 diacid-γGlu}-KCNTATCATQRLAEFLRHSSPNFGAIPSSTNVGSHTY-NH2; disulfide 2-7) | –
2 | – | 9.9 | 9.9 | – | 9.9 | 25 h | CC[C@H](C)[C@H](NC(=O)[C@H](C)NC(=O)CNC(=O)[C@H](Cc1ccccc1)NC(=O)[C@H](CC(N)=O)NC(=O)[C@@H]1CCCN1C(=O)[C@H](CO)NC(=O)[C@H](CO)NC(=O)[C@H](Cc1c[nH]cn1)NC(=O)[C@H](CCCNC(=N)N)NC(=O)[C@H](CC(C)C)NC(=O)[C@H](Cc1ccccc1)NC(=O)[C@H](CCC(=O)O)NC(=O)[C@H](C)NC(=O)[C@H](CC(C)C)NC(=O)[C@H](CCCNC(=N)N)NC(=O)[C@H](CCC(N)=O)NC(=O)[C@@H](NC(=O)[C@H](C)NC(=O)[C@@H]1CSSC[C@H](NC(=O)[C@@H](N)CCCCNC(=O)CC[C@H](NC(=O)CC[C@H](NC(=O)CCCCCCCCCCCCCCCCCCC(=O)O)C(=O)O)C(=O)O)C(=O)N[C@@H](CC(N)=O)C(=O)N[C@@H]([C@@H](C)O)C(=O)N[C@@H](C)C(=O)N[C@@H]([C@@H](C)O)C(=O)N1)[C@@H](C)O)C(=O)N1CCC[C@H]1C(=O)N[C@@H](CO)C(=O)N[C@@H](CO)C(=O)N[C@H](C(=O)N[C@@H](CC(N)=O)C(=O)N[C@H](C(=O)NCC(=O)N1CCC[C@H]1C(=O)N[C@@H](CC(N)=O)C(=O)N[C@H](C(=O)N[C@@H](Cc1ccccc1)C(N)=O)[C@@H](C)O)C(C)C)[C@@H](C)O [Example 127] (H-K([γGlu-γGlu-C20 diacid])CNTATCATQRLAEFLRHSSPNFGAIPSSTNVGPNTF-NH2; disulfide 2-7 (inferred)) | –
3 | 0.8 | 0.8 | 0.8 | – | 0.8 | 23 h | CC[C@H](C)[C@H](NC(=O)[C@H](C)NC(=O)CNC(=O)[C@H](Cc1ccccc1)NC(=O)[C@H](CC(N)=O)NC(=O)[C@@H]1CCCN1C(=O)[C@H](CO)NC(=O)[C@H](CO)NC(=O)[C@H](Cc1c[nH]cn1)NC(=O)[C@H](CCCNC(=N)N)NC(=O)[C@H](CC(C)C)NC(=O)[C@H](Cc1ccccc1)NC(=O)[C@H](CCC(=O)O)NC(=O)[C@H](C)NC(=O)[C@H](CC(C)C)NC(=O)[C@H](CCCNC(=N)N)NC(=O)[C@H](CCC(N)=O)NC(=O)[C@@H](NC(=O)[C@H](C)NC(=O)[C@@H]1CSSC[C@H](NC(=O)[C@@H](N)CCCCNC(=O)CC[C@H](NC(=O)CC[C@H](NC(=O)CCCCCCCCCCCCCCCCCCC(=O)O)C(=O)O)C(=O)O)C(=O)N[C@@H](CC(N)=O)C(=O)N[C@@H]([C@@H](C)O)C(=O)N[C@@H](C)C(=O)N[C@@H]([C@@H](C)O)C(=O)N1)[C@@H](C)O)C(=O)N1CCC[C@H]1C(=O)N[C@@H](CO)C(=O)N[C@@H](CO)C(=O)N[C@H](C(=O)N[C@@H](CC(N)=O)C(=O)N[C@H](C(=O)NCC(=O)N1CCC[C@H]1C(=O)N[C@@H](CCC(=O)O)C(=O)N[C@H](C(=O)N1CCC[C@H]1C(N)=O)[C@@H](C)O)C(C)C)[C@@H](C)O [Example 125] (H-K([γGlu-γGlu-C20 diacid])CNTATCATQRLAEFLRHSSPNFGAIPSSTNVGPETP-NH2; disulfide 2-7 (inferred); N-terminus assumed) | –
4 | 3.9 | 3.9 | 3.9 | 288 pM | 3.9 | 30 h | CC[C@H](C)[C@H](NC(=O)[C@H](C)NC(=O)CNC(=O)[C@H](Cc1ccccc1)NC(=O)[C@H](CC(N)=O)NC(=O)[C@@H]1CCCN1C(=O)[C@H](CO)NC(=O)[C@H](CO)NC(=O)[C@H](Cc1c[nH]cn1)NC(=O)[C@H](CCCNC(=N)N)NC(=O)[C@H](CC(C)C)NC(=O)[C@H](Cc1ccccc1)NC(=O)[C@H](CC(=O)O)NC(=O)[C@H](C)NC(=O)[C@H](CC(C)C)NC(=O)[C@H](CCCNC(=N)N)NC(=O)[C@H](CCC(N)=O)NC(=O)[C@@H](NC(=O)[C@H](C)NC(=O)[C@@H]1CSSC[C@H](NC(=O)[C@@H](N)CCCCNC(=O)CC[C@H](NC(=O)CCCCCCCCCCCCCCCCCCC(=O)O)C(=O)O)C(=O)N[C@@H](CC(N)=O)C(=O)N[C@@H]([C@@H](C)O)C(=O)N[C@@H](C)C(=O)N[C@@H]([C@@H](C)O)C(=O)N1)[C@@H](C)O)C(=O)N1CCC[C@H]1C(=O)N[C@@H](CO)C(=O)N[C@@H](CO)C(=O)N[C@H](C(=O)N[C@@H](CC(N)=O)C(=O)N[C@H](C(=O)NCC(=O)N1CCC[C@H]1C(=O)N[C@@H](CCC(=O)O)C(=O)N[C@H](C(=O)N[C@@H](Cc1ccc(O)cc1)C(N)=O)[C@@H](C)O)C(C)C)[C@@H](C)O [Example 123] (H-K([γGlu-C20 diacid])CNTATCATQRLADFLRHSSPNFGAIPSSTNVGPETY-NH2; disulfide 2-7; N-terminus assumed) | –

Row | SMILES | Ratio hCT/hAmylin funct. [1, 3] | Ratio hCT/hAmylin funct. [1, 4] | Ratio hCT/hAmylin funct. [1, 5] | EC50 [1, 6] | Ratio hCT/hAmylin funct. [1, 7] | ThT pH 4.0 lag time (h) [2] | EC50 [1]
5 | CC[C@H](C)[C@H](NC(=O)[C@H](C)NC(=O)CNC(=O)[C@H](Cc1ccccc1)NC(=O)[C@H](CC(N)=O)NC(=O)[C@@H]1CCCN1C(=O)[C@H](CO)NC(=O)[C@H](CO)NC(=O)[C@H](Cc1c[nH]cn1)NC(=O)[C@H](CCCNC(=N)N)NC(=O)[C@H](CC(C)C)NC(=O)[C@H](Cc1ccccc1)NC(=O)[C@H](CCCCN)NC(=O)[C@H](C)NC(=O)[C@H](CC(C)C)NC(=O)[C@H](CCCNC(=N)N)NC(=O)[C@H](CCC(N)=O)NC(=O)[C@@H](NC(=O)[C@H](C)NC(=O)[C@@H]1CSSC[C@H](NC(=O)[C@@H](N)CCCCNC(=O)COCCOCCNC(=O)CC[C@H](NC(=O)CCCCCCCCCCCCCCCCCCC(=O)O)C(=O)O)C(=O)N[C@@H](CC(N)=O)C(=O)N[C@@H]([C@@H](C)O)C(=O)N[C@@H](C)C(=O)N[C@@H]([C@@H](C)O)C(=O)N1)[C@@H](C)O)C(=O)N1CCC[C@H]1C(=O)N[C@@H](CO)C(=O)N[C@@H](CO)C(=O)N[C@H](C(=O)N1CCC[C@H]1C(=O)N[C@H](C(=O)NCC(=O)N[C@@H](CO)C(=O)N[C@@H](CC(N)=O)C(=O)N[C@H](C(=O)N[C@@H](Cc1ccc(O)cc1)C(N)=O)[C@@H](C)O)C(C)C)[C@@H](C)O [Example 74] (H-K([AEEA-γGlu-C20 diacid])CNTATCATQRLAKFLRHSSPNFGAIPSSTPVGSNTY-NH2; disulfide 2-7; N-terminus assumed) | – | 56.3 | 56.3 | – | 56.3 | 45 h | 666 pM
6 | CC[C@H](C)[C@H](NC(=O)[C@H](C)NC(=O)CNC(=O)[C@H](Cc1ccccc1)NC(=O)[C@H](CC(N)=O)NC(=O)[C@@H]1CCCN1C(=O)[C@H](CO)NC(=O)[C@H](CO)NC(=O)[C@H](Cc1c[nH]cn1)NC(=O)[C@H](CCCNC(=N)N)NC(=O)[C@H](CC(C)C)NC(=O)[C@H](Cc1ccccc1)NC(=O)[C@H](C)NC(=O)[C@H](C)NC(=O)[C@H](CC(C)C)NC(=O)[C@H](CCCNC(=N)N)NC(=O)[C@H](CCC(N)=O)NC(=O)[C@@H](NC(=O)[C@H](C)NC(=O)[C@@H]1CSSC[C@H](NC(=O)[C@@H](N)CCCCNC(=O)CC[C@H](NC(=O)CCCCCCCCCCCCCCCCCCC(=O)O)C(=O)O)C(=O)N[C@@H](CC(N)=O)C(=O)N[C@@H]([C@@H](C)O)C(=O)N[C@@H](C)C(=O)N[C@@H]([C@@H](C)O)C(=O)N1)[C@@H](C)O)C(=O)N1CCC[C@H]1C(=O)N[C@@H](CO)C(=O)N[C@@H](CO)C(=O)N[C@H](C(=O)N[C@@H](CC(N)=O)C(=O)N[C@H](C(=O)NCC(=O)N1CCC[C@H]1C(=O)N[C@@H](CC(N)=O)C(=O)N[C@H](C(=O)N[C@@H](Cc1ccc(O)cc1)C(N)=O)[C@@H](C)O)C(C)C)[C@@H](C)O [Example 94] (H-K([γGlu-C20 diacid])CNTATCATQRLAAFLRHSSPNFGAIPSSTNVGPNTY-NH2; disulfide 2-7 (inferred)) | 4.5 | 4.5 | – | 70 pM | 4.5 | 10 h | –
